US9045415B2, “Targeting of EWS-FLI1 as anti-tumor therapy” (Georgetown University, priority 2006, dated 2015)
Several values for one entry are separate records, joined by “and”; a condition that tells them apart may be missing. Equal entries are not always repeated. Entries after “also recorded” stand apart in the source; their conditions may differ. Where two headings read alike, the source gives them in different places.

What was measured:
TC32 cells = test: Monolayer cell growth (MTT or WST), TC32; type: cell-based; details: for IC50: Homo sapiens, TC-32, 168 h, seven days in culture, read-out: IC50, TC32 cells growing in monolayer
Protocol: (§1) In FIG. 13A, recombinant EWS-FLI1 was treated with NSC635437 for 30 minutes. GST-RHA (630-1020) was added and the complexes were then precipitated with antibody to EWS-FLI1 and Protein G beads. Resolved complexes showing the immunoprecipitated complex control without compound are in lanes 3 (0.1% DMSO) and 5 (0.01% DMSO). […] ESFT TC32 (◯) and neuroblastoma SK-N-AS (▪) were grown for 72 hours in the continuous presence of NSC635437. Cells were incubated in MTT reagent for 4 hours and the dried precipitate was dissolved isopropanol and the absorbance read at 570 nm. Each cell line was standardized to the growth of the DMSO control.
FIG. 30 provides data to show E9R peptide prevents EWS-FLI1 binding to RHA with specific detrimental effects upon ESFT growth and transformation. […] Scale bar equals 20 μm. […] Only expression of EGFP-E9R in TC71 reduced anchorage independent growth. […] Scale bar equals 20 μm.
FIG. 33 provides data showing YK-4-279 is potent and specific inhibitor of ESFT. […] Cell number was measured by MTT or WST reduction after seven days in culture. […] FIG. 33D cell lines expressing EWS-FLI1 compared to non-EWS-FLI1 malignant cell lines following 3 days in culture to establish the IC50 using WST assay. […] Graph plots level of fluorescence in treated divided by untreated lysate. […] Scale bar equals 200 μm.

recombinant EWS-FLI1 = target: T1, recombinant EWS-FLI1 (Homo sapiens, UniProt Q01543+Q01844); test: Surface plasmon resonance (Biacore) binding to EWS-FLI1
T1 sequence (Q01543 1-452): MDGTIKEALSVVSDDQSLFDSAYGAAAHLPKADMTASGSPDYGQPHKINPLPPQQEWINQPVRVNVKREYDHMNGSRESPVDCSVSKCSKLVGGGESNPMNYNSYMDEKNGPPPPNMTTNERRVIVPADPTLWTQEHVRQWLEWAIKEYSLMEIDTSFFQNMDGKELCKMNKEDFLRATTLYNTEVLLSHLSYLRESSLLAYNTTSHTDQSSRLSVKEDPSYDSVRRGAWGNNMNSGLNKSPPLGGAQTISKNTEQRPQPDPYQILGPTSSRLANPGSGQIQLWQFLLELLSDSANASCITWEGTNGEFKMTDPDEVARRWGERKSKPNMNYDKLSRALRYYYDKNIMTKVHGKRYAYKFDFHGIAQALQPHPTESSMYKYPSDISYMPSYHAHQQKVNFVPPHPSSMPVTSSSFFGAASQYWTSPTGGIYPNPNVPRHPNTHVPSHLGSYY
T1 sequence (Q01844 1-656): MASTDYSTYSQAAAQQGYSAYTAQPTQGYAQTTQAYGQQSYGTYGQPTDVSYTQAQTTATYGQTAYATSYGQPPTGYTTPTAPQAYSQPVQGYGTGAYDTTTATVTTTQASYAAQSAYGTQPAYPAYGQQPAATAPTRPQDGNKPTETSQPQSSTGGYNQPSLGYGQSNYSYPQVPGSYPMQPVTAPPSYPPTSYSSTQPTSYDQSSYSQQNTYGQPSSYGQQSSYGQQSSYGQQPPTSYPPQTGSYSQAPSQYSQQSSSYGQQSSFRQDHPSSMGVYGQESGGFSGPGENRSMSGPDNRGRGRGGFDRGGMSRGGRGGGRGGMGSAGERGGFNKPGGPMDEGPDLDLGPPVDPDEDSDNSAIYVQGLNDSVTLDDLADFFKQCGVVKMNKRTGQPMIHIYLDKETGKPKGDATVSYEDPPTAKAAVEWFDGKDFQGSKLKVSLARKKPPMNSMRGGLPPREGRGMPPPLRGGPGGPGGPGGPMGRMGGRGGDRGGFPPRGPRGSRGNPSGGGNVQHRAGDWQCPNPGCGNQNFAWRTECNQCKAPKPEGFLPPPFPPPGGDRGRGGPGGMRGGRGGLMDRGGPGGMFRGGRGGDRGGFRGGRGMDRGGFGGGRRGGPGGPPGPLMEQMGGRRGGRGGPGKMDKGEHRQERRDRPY
Protocol: Antp is conjugated to the amino terminal of all peptides used in these studies. Recombinant EWS-FLI1 (MW 55 kDa) was covalently linked to a CM5 chip at a density of 1200 RU, and E9RP (MW 4 kDa) was evaluated for binding. The E9RP analyte concentrations ranged from 0.03-30 μM, and all are shown in duplicate. E9RP bound to EWS-FLI1 with a KD of 4.0 μM.
An assay that will identify whether a peptide can disrupt RHA from interacting with EWS-FLI1 was developed. The Biacore device is a biosensor that utilizes surface plasmon resonance (SPR) to measure the strength of molecular interactions. SPR is the sensitive measurement of […] light based upon alterations of surface characteristics that change with molecules binding to a surface. The Biacore device combines SPR with a microfluidic system.
The KD of E9RP binding to EWS-FLI1 was calculated to be 4.0 μM (FIG. 4).
A surface plasmon resonance assay using the Biacore T100 was established with EWS-FLI1, prepared in our laboratory as previously published (Uren, A., Tcherkasskaya, O. & Toretsky, J. A. Recombinant EWS-FLI1 oncoprotein activates transcription. Biochemistry 43, 13579-13589 (2004)). DNA oligonucleotides were used to quality control the proper conformation of EWS-FLI1 on the surface of a CM5 chip. Small molecules obtained from the Developmental Therapeutics Program of the National Cancer Institute, NIH (http://dtp.nci.nih.gov/branches/dscb/repo_open.html) were prioritized based upon their molecular weight and solubility. An initial screening of molecules was performed at 1 or 10 μM compound, based on solubility. We used a model that compares the actual binding maximum (actual RU) with the theoretical binding maximum (RUtheor). […] Hits (RUactual to RUtheor of 0.7-2.0) were then reviewed by a team of medicinal chemists and those with structural potentials were selected for further study. Selected molecules were tested in vitro in a solution coimmunoprecipitation assay using recombinant EWS-FLI1 and GST-RHA (647-1075).

RHA binding to EWS-FLI1 = test: Solution immunoprecipitation of GST-RHA with recombinant EWS-FLI1; design: species or system human; details: for binding of GST-RHA (647-1075) to full-length recombinant EWS-FLI1: cell-free assay
Protocol: E9RP is the peptide region of RHA (E9R; SEQ ID NO: 29) fused to the Penetratin peptide (from the Antennapedia homeodomain; SEQ ID NO: 34). Immunoprecipitation of GST-RHA using recombinant EWS-FLI1 bound to a FLI1 antibody. […] E9RP is the sequence of aa 823-832 of human RHA that were synthesized.
as §1
Protein lysates and immunoprecipitations were performed as previously published (Uren et al (2005)). Recombinant GST-RHA (647-1075) was prepared from crude bacterial extracts without further purification.
Reagents were developed to block RHA binding to EWS-FLI1 since RHA is necessary for optimal EWS-FLI1 activity. The E9R peptide corresponds to amino acids 823 to 832, located in the proximal HA2 region of RHA (FIG. 29A). A cell-free protein interaction assay was developed to test whether E9R peptide inhibits RHA binding to EWS-FLI1. […] It was determined whether disrupted EWS-FLI1/RHA binding inhibited cell growth.

[1] = FIG. 24 experiment, read-out: KD
[2] = SPR, EWS-FLI1 immobilized on CM5 chip, read-out: KD of binding to EWS-FLI1

RUactual:RUtheor (recombinant EWS-FLI1; library screening, single concentration)	RHA binding to EWS-FLI1 in solution binding assay (RHA binding to EWS-FLI1; 10 μM)	complex formation compared to DMSO matched controls (RHA binding to EWS-FLI1; 10 μM and 1 μM, GST-RHA (630-1020))	SMILES	cell growth (MTT) (TC32 cells; 72 hours continuous presence)	IC50 (TC32 cells) [nM]	Kd (recombinant EWS-FLI1; [1])	Kd (recombinant EWS-FLI1; [2])	binding of GST-RHA (647-1075) to full-length recombinant EWS-FLI1 (RHA binding to EWS-FLI1)
0.9	block the binding of RHA to EWS-FLI1	decreased complex formation	O=C(CC1(O)C(=O)Nc2c(Cl)ccc(Cl)c21)c1ccc(Cl)cc1 (stereo not drawn) [NSC635437, 4,7-Dichloro-3-[2-(4-chlorophenyl)-2-oxoethyl]-3-hydroxyl-1,3-dihydro-2H-indol-2-one]	specifically cytotoxic to ESFT cells; also recorded: reduces ESFT	20000	1210 nM and 2020 nM	2340 nM and 2000 nM	reduced the direct binding
–	–	–	COc1ccc(C(=O)CC2(O)C(=O)Nc3c(Cl)ccc(Cl)c32)cc1 (stereo not drawn) [YK-4-279, 4,7-Dichloro-3-hydroxy-3-[2-(4-methoxyphenyl)-2-oxoethyl]-1,3-dihydro-2H-indol-2-one]	–	900	4560 nM	9480 nM	significantly reduced the protein-protein interaction
